# Assay results published in patent US12593845B2 (priority 2019, dated 2026).
# System: apple scab pathogen (Venturia inaequalis)
# Assay: Apple scab control test
# Format: in vivo
# Conditions: 336 h, 125 ppm drug solution sprayed onto apple seedlings (Orin), lesion area ratio 2 weeks after inoculation
# Description: 5 parts by weight of the dihydropyrimidine compound of the present invention, 93.5 parts by weight of N,N-dimethylformamide, and 1.5 parts by weight of polyoxyethylene sorbitan monolaurate (TWEEN® 20) were mixed and dissolved to obtain an emulsion (I) including 5% of an active ingredient.
# The control value was calculated by the following expression. Control value (%)=100−{lesion area ratio in treated group/lesion area ratio in untreated group}×100 [Expression 1]
# Water was added to the emulsion (I) such that the concentration of the dihydropyrimidine compound reached 125 ppm to dissolve the emulsion, and a drug solution was obtained. Subsequently, the drug solution was sprayed onto apple seedlings (variety: “Orin”, leaf stage: 3 to 4) cultivated in seedling pots. After air drying, the seedlings were inoculated with conidiospores of an apple scab pathogen (Venturia inaequalis) (treated group). As a control, apple seedlings that were not sprayed with the drug solution were inoculated in the same manner (untreated group). The seedlings were left to stand in a humidified room at 20° C. using a 12 hour light/dark cycle.
# On the day 2 weeks after the inoculation, the leaves of the apple seedlings were visually observed to determine the lesion area ratio, and the control value was calculated.
row,SMILES,pest or weed control at 125 ppm
1,COc1ccc(F)cc1C(O)Cn1cc(/C=N\OC(C)C)c(=O)n(CC(=O)N2CCCCC2)c1=O (centres unmarked) [A-83],≥ 75%
2,CCO/N=C(\C)c1cn(/C=C(\OC(=O)C(C)C)c2cc(F)ccc2OC)c(=O)n(C2CCCC2NC(=O)C(C)C)c1=O (centres unmarked) [A-44],≥ 75%
3,CCCn1c(=O)c(/C(C)=N/OC(C)C)cn(CC(O)c2cc(F)ccc2OC)c1=O (centres unmarked) [B-7],≥ 75%
4,CCON=Cc1cn(CC(O)c2cc(F)ccc2OC)c(=O)n(CCNC(=O)OC(C)(C)C)c1=O (centres unmarked) [A-19],≥ 75%
5,COc1ccc(F)cc1C(O)Cn1cc(C=NOC(C)C)c(=O)n(CC(=O)NC(C)C)c1=O (centres unmarked) [A-85],≥ 75%
6,COc1ccc(F)cc1C(Cn1cc(C=NOC(C)(C)C)c(=O)n(C(C)C(=O)NC(C)C)c1=O)OCCC#N (centres unmarked) [A-98],≥ 75%
7,COc1ccc(F)cc1C(Cn1cc(C=NOC(C)C)c(=O)n(C(C)C(=O)N2CCSCC2)c1=O)OCCC#N (centres unmarked) [A-67],≥ 75%
8,COc1ccc(F)cc1C(O)Cn1cc(C=NOC(C)C)c(=O)n(C(C)C(=O)N2CCSCC2)c1=O (centres unmarked) [A-72],≥ 75%
9,CON=Cc1cn(CC(OCCC#N)c2cc(F)ccc2OC)c(=O)n(C(C)C(=O)NC(C)C)c1=O (centres unmarked) [A-6],≥ 75%
10,"CCO/N=C(\C)c1cn(CC(=O)c2cc(F)ccc2OC)c(=O)n(CCNC(=O)C(C)C)c1=O [A-36, N-(2-(5-(1-(ethoxyimino)ethyl)-3-(2-(5-fluoro-2-methoxyphenyl)-2-oxoethyl)-2,6-dioxo-3,6-dihydropyrimidin-1(2H)-yl)ethyl)isobutyramide]",≥ 75%
11,COc1ccc(F)cc1C(O)Cn1cc(C=NOC(C)C)c(=O)n(C(C)C(=O)NC2CC2)c1=O (centres unmarked) [A-87],≥ 75%
12,CCO/N=C(\N)c1cn(CCc2ccccc2OC)c(=O)n(CCc2ccccc2OC)c1=O [B-9],≥ 75%
13,CCON=Cc1cn(CC(=O)c2cc(F)ccc2OC)c(=O)n(CCNC(=O)OC(C)(C)C)c1=O [A-20],≥ 75%
14,COc1ccc(F)cc1C(Cn1cc(C=NOCC2CC2)c(=O)n(C(C)C(=O)NC(C)C)c1=O)OCCC#N (centres unmarked) [A-9],≥ 75%
15,C#CCON=Cc1cn(CC(OCCC#N)c2cc(F)ccc2OC)c(=O)n(C(C)C(=O)NC(C)C)c1=O (centres unmarked) [A-21],≥ 75%
16,CCON=Cc1cn(CCc2ccccc2OC)c(=O)n(C(C)C(=O)N2CCCC2)c1=O (centres unmarked) [A-104],≥ 75%
17,CCOC(=O)C(C)(C)Cn1c(=O)c(/C(C)=N/OC(C)C)cn(CC(=O)c2cc(F)ccc2OC)c1=O [A-3],≥ 75%
18,COc1cccc(C(O)Cn2cc(/C(C)=N/OC(C)C)c(=O)n(C[C@H](C)NC(=O)C(C)C)c2=O)c1 (some centres unmarked) [A-40],≥ 75%
19,CCON=Cc1cn(CCc2ccccc2OC)c(=O)n(C(C)C(=O)NC(C)C)c1=O (centres unmarked) [A-107],≥ 75%
20,C=CCON=Cc1cn(CC(OCCC#N)c2cc(F)ccc2OC)c(=O)n(C(C)C(=O)NC(C)C)c1=O (centres unmarked) [A-5],≥ 75%
21,CCON=Cc1cn(CC(OCCC#N)c2cc(F)ccc2OC)c(=O)n(CC(C)(C)C(=O)OCC)c1=O (centres unmarked) [A-13],≥ 75%
22,CCO/N=C(\C)c1cn(CC(=O)c2cc(F)ccc2OC)c(=O)n(CC(C)(C)C(=O)NC(C)C)c1=O [A-26],≥ 75%
23,COc1ccccc1CCn1cc(/C(N)=N/OC(C)C)c(=O)n(CCc2ccccc2OC)c1=O [B-8],≥ 75%
24,CCON=Cc1cn(CCc2ccccc2OC)c(=O)n(C(C)C(=O)OCC)c1=O (centres unmarked) [A-103],≥ 75%
25,COc1ccc(F)cc1C(Cn1cc(C=NOCC(F)(F)F)c(=O)n(C(C)C(=O)NC(C)C)c1=O)OCCC#N (centres unmarked) [A-22],≥ 75%
26,CCON=Cc1cn(CC(O)c2cc(F)ccc2OC)c(=O)n(CC(C)(C)C(=O)OCC)c1=O (centres unmarked) [A-15],≥ 75%
27,CCON=Cc1cn(CC(O)c2cc(F)ccc2OC)c(=O)n(CC(C)(C)C(=O)NC(C)C)c1=O (centres unmarked) [A-8],≥ 75%
28,CCON=Cc1cn(CC(OCCC#N)c2cc(F)ccc2OC)c(=O)n(CCNC(=O)c2ccc(F)cc2)c1=O (centres unmarked) [A-16],≥ 75%

# System: Aspergillus niger
# Assay: Antimicrobial test against Aspergillus niger
# Format: cell-based
# Conditions: 96 h, Vogel medium, 25° C., 4 days in the dark, turbidity at 405 nm, read-out: growth inhibition rate
# Description: Spores of Aspergillus niger were added to and dispersed in a Vogel medium, and a dihydropyrimidine compound dissolved in dimethyl sulfoxide was added and mixed thereto at 25 ppm. The resulting solution was dispensed onto a 96-well microplate and cultivated in the dark at 25° C. for 4 days.
# After the cultivation, the turbidity at a wavelength of 405 nm was measured by a microplate reader and compared with that in the untreated case to determine the growth inhibition of Aspergillus niger (%) was determined.
row,SMILES,inhibition at 25 ppm
1,COc1ccc(F)cc1C(O)Cn1cc(/C(C)=N/OC(C)C)c(=O)n(C[C@H](C)NC(=O)OC(C)C)c1=O (some centres unmarked) [C-188],≥ 50%
2,COc1ccccc1C(O)Cn1cc(/C(C)=N/OC(C)C)c(=O)n(C[C@H](CC(C)C)NC(=O)C(C)C)c1=O (some centres unmarked) [C-43],≥ 50%
3,COc1ccc(F)cc1C(O)Cn1cc(/C(C)=N/OC(C)C)c(=O)n(C[C@@H]2CCCN2C(=O)C(C)C)c1=O (stereo partly drawn) [D-20],≥ 50%
4,C/C(=N\OC(C)C)c1cn(CC(O)c2ccccc2C)c(=O)n(C[C@H](C)NC(=O)C(C)C)c1=O (some centres unmarked) [C-213],≥ 50%
5,COc1ccc(F)cc1C(O)Cn1cc(/C(C)=N/OC(C)C)c(=O)n(Cc2ccccn2)c1=O [D-56],≥ 50%
6,COc1ccc(F)cc1C(O)Cn1cc(/C(C)=N/OC(C)C)c(=O)n(C[C@H](CC(C)C)NC(=O)N(C)C)c1=O (some centres unmarked) [C-60],≥ 50%
7,"C/C(=N\OC(C)C)c1cn(CC(O)c2ccccc2OC(F)(F)F)c(=O)n(C[C@H](C)NC(=O)C(C)C)c1=O (stereo partly drawn) [C-194, N-((2S)-1-(3-(2-hydroxy-2-(2-(trifluoromethoxy)phenyl)ethyl)-5-((E)-1-(isopropoxyimino)ethyl)-2,6-dioxo-3,6-dihydropyrimidin-1(2H)-yl)propan-2-yl)isobutyramide]",≥ 50%
8,COc1ccccc1Cn1c(=O)c(/C(C)=N/OC(C)C)cn(CC(O)c2cc(F)ccc2OC)c1=O [D-54],≥ 50%
9,COc1ccc(F)cc1C(O)Cn1cc(/C(C)=N/OC(C)C)c(=O)n(C[C@@H]2CCCN2C(=O)N(C)C)c1=O (stereo partly drawn) [D-22],≥ 50%
10,COc1ccccc1C(O)Cn1cc(/C(C)=N/OC(C)C)c(=O)n(C[C@@H](NC(=O)C(C)(C)C)C(C)C)c1=O (some centres unmarked) [C-129],≥ 50%
11,COc1ccc(F)cc1C(O)Cn1cc(/C(C)=N/OC(C)C)c(=O)n(C[C@@H](NC(=O)C2CC2)C(C)C)c1=O (some centres unmarked) [C-103],≥ 50%
12,COc1ccc(F)cc1C(O)Cn1cc(/C(C)=N/OC(C)C)c(=O)n(C[C@H](C)NC(=O)C(C)(C)C)c1=O (some centres unmarked) [C-126],≥ 50%
13,CC/C(=N\OC(C)C)c1cn(CC(O)c2cc(F)ccc2OC)c(=O)n(C[C@H](C)NC(=O)C(C)C)c1=O (some centres unmarked) [C-172],≥ 50%
14,COC(=O)N[C@@H](C)Cn1c(=O)c(/C(C)=N/OC(C)C)cn(CC(O)c2cc(F)ccc2OC)c1=O (some centres unmarked) [C-186],≥ 50%
15,C=C(C)C(=O)N1CCC[C@H]1Cn1c(=O)c(/C(C)=N/OC(C)C)cn(CC(O)c2cc(F)ccc2OC)c1=O (stereo partly drawn) [D-11],≥ 50%
16,COc1ccc(F)cc1C(O)Cn1cc(/C(C)=N/OC(C)C)c(=O)n(C[C@@H](NC(=S)N(C)C)C(C)C)c1=O (some centres unmarked) [C-63],≥ 50%

row,SMILES,inhibition at 25 ppm
1,COc1ccccc1C(O)Cn1cc(/C(C)=N/OC(C)C)c(=O)n(C[C@@H](NC(=O)C2CCC2)C(C)C)c1=O (some centres unmarked) [C-79],≥ 50%
2,COc1ccc(F)cc1C(O)Cn1cc(/C(C)=N/OC(C)C)c(=O)n(C[C@@H](NC(=O)C(C)C)c2ccccc2)c1=O (some centres unmarked) [C-202],≥ 50%
3,COc1ccc(F)cc1C(O)Cn1cc(/C(C)=N/OC(C)C)c(=O)n(C[C@H](C)NC(=O)C2CC2)c1=O (some centres unmarked) [C-141],≥ 50%
4,COc1ccc(F)cc1C(O)Cn1cc(/C(C)=N/OC(C)C)c(=O)n(C[C@H](C)NC(=O)CC(C)C)c1=O (some centres unmarked) [C-124],≥ 50%
5,COc1ccc(F)cc1C(O)Cn1cc(/C(C)=N/OC(C)C)c(=O)n(C[C@@H](NC(=O)CSC)C(C)C)c1=O (some centres unmarked) [C-75],≥ 50%
6,COc1ccc(Cn2c(=O)c(/C(C)=N/OC(C)C)cn(CC(O)c3cc(F)ccc3OC)c2=O)cc1 [D-52],≥ 50%
7,COc1ccc(F)cc1C(O)Cn1cc(/C(C)=N/OC(C)C)c(=O)n(C[C@H](Cc2ccccc2)NC(=O)C(C)C)c1=O (some centres unmarked) [C-168],≥ 50%
8,CC[C@@H](Cn1c(=O)c(/C(C)=N/OC(C)C)cn(CC(O)c2cc(F)ccc2OC)c1=O)NC(=O)C(C)(C)C (some centres unmarked) [C-58],≥ 50%
9,CCC(=O)N[C@@H](CC(C)C)Cn1c(=O)c(/C(C)=N/OC(C)C)cn(CC(O)c2cc(F)ccc2OC)c1=O (some centres unmarked) [C-62],≥ 50%
10,COc1cccc(Cn2c(=O)c(/C(C)=N/OC(C)C)cn(CC(O)c3cc(F)ccc3OC)c2=O)c1 [D-53],≥ 50%
11,CCC(=O)N[C@@H](C)Cn1c(=O)c(/C(C)=N/OC(C)C)cn(CC(O)c2cc(F)ccc2OC)c1=O (some centres unmarked) [C-137],≥ 50%
12,COc1ccc(F)cc1C(O)Cn1cc(/C(C)=N/OC(C)C)c(=O)n(C[C@@H](NC(=O)C(Cl)Cl)C(C)C)c1=O (some centres unmarked) [C-81],≥ 50%
13,C=CC(=O)N[C@H](Cn1c(=O)c(/C(C)=N/OC(C)C)cn(CC(O)c2cc(F)ccc2OC)c1=O)C(C)C (some centres unmarked) [C-109],≥ 50%
14,COc1ccccc1C(O)Cn1cc(/C(C)=N/OC(C)C)c(=O)n(C[C@@H](NC(=O)N(C)C)C(C)C)c1=O (some centres unmarked) [C-77],≥ 50%
15,COc1ccc(F)cc1C(O)Cn1cc(/C(C)=N/OC(C)C)c(=O)n(C[C@@H](NC(=O)N(C)C)C(C)C)c1=O (some centres unmarked) [C-69],≥ 50%
